From article PMC7664879, “Discovery of 12O—A Novel Oral Multi-Kinase Inhibitor for the Treatment of Solid Tumor” (Molecules, 2020)

Experiments:
SKOV3 = assay: CCK-8 cell growth inhibition, SKOV3; type: cell-based, human; conditions: CCK-8 assay, 72-h incubation; read-out: Cell Lines IC50 SKOV3
Method: (§1) In vitro anticancer screening of all newly synthesized compounds towards human solid tumor cells, cervical (SiHa) and ovarian (SKOV3) cancer cell lines, was carried out by standard CCK-8 assay with cisplatin as the positive control, as cisplatin is one of the most used chemotherapy drugs. […] The compound was further evaluated in a dose response study against a panel of solid tumor cells, including cervical cancer cell lines (SiHa and HeLa), ovarian cancer cell lines (SKOV3 and OVCAR-5), breast cancer cell lines (4T1 and MCF-7), lung cancer cell lines (A549 and H460) to test cytotoxic activity. The IC50 values were summarized in Table 2, including the cytotoxic activity of the cisplatin used as reference compound.
(§2) The viability of cells as determined using the CCK8 assay method. Cells were seeded (2000–3000 cells per well) in 96-well plates. After incubation for 24 h in serum-containing media, the cells were treated with drugs at different concentrations diluted with culture medium for 72 h at 37 °C with a 5% CO2 atmosphere. Then, 10 μL CCK8 regent (Promega, WI) was added to each well, and the plates were incubated for 1–4 h at 37 °C. Finally, absorbance values of test wells (AS), control wells (AC) and blank wells (Ab) at 450 nm were read using the Microplate Reader (Promega, WI). Inhibition ratios were calculated as follows: [(AC − AS)/ (AC−Ab)] × 100%. IC50 values were calculated using GraphPad software.

SiHa = assay: CCK-8 cell growth inhibition, SiHa; type: cell-based, human; conditions: CCK-8 assay, 72-h incubation; read-out: Cell Lines IC50 SiHa
Method: as §1, §2

HeLa = assay: CCK-8 cell growth inhibition, HeLa; type: cell-based, human; conditions: cervical cancer; CCK-8 assay, 72-h incubation
Method: as §1
as §2, with “Then, 10 μL CCK8 regent (Promega, WI) was added to each well, and the plates were incubated for 1–4 h at 37 °C.” left out

MCF-7 = assay: CCK-8 cell growth inhibition, MCF-7; type: cell-based, human; conditions: breast cancer; CCK-8 assay, 72-h incubation
Method: as §1
as §2, with “Then, 10 μL CCK8 regent (Promega, WI) was added to each well, and the plates were incubated for 1–4 h at 37 °C.” left out

4T1 = assay: CCK-8 cell growth inhibition, 4T1; type: cell-based; conditions: breast cancer; CCK-8 assay, 72-h incubation
Method: as §1
as §2, with “Then, 10 μL CCK8 regent (Promega, WI) was added to each well, and the plates were incubated for 1–4 h at 37 °C.” left out

OVCAR-5 = assay: CCK-8 cell growth inhibition, OVCAR-5; type: cell-based, human; conditions: ovarian cancer; CCK-8 assay, 72-h incubation
Method: as §1
as §2, with “Then, 10 μL CCK8 regent (Promega, WI) was added to each well, and the plates were incubated for 1–4 h at 37 °C.” left out

A549 = assay: CCK-8 cell growth inhibition, A549; type: cell-based, human; conditions: lung cancer; CCK-8 assay, 72-h incubation
Method: as §1
as §2, with “Then, 10 μL CCK8 regent (Promega, WI) was added to each well, and the plates were incubated for 1–4 h at 37 °C.” left out

H460 = assay: CCK-8 cell growth inhibition, H460; type: cell-based, human; conditions: lung cancer; CCK-8 assay, 72-h incubation
Method: as §1
as §2, with “Then, 10 μL CCK8 regent (Promega, WI) was added to each well, and the plates were incubated for 1–4 h at 37 °C.” left out

SiHa xenograft = SiHa xenograft mouse model, oral dosing; type: in vivo; conditions: SiHa xenograft mice, 20 mg/kg oral, every day
Method: Based on a desirable set of in vitro properties, 12O was finally selected for further in vivo evaluation. We proceeded to test the antitumor efficacy of 12O in SiHa xenograft mice. Animals were orally given three doses (5, 10, and 20 mg Kg^−1) of 12O, one dose (20 mg Kg^−1) of cisplatin (positive control), or vehicle (control) every day. […] Of note, In Figure 5c, an obvious decrease in tumor size was also observed at the end of observation. The average tumor weight (Figure 5d) of the 12O-treated group was less than that of cisplatin. HE staining was further performed to identify the efficacy of 12O (Figure 5e). […] Additional kinase activities of 12O intimately associated with the growth, survival, and metastasis in tumor cells, may contribute to the antitumor activity, but may also cause side effects. Multi-target kinase inhibitor extensively used in clinic cancer therapy, while hampered by associated adverse reactions and side-effect. Thus, further evidence is needed. An in-depth study of compound 12O is ongoing in our laboratory and will be reported in due course.
All animal studies were conducted under the approval of the Experimental Animal Management Committee of Nankai University (No. NKUEC20190228). Six- to eight-week-old female BALB/c nude mice were purchased from Beijing HFK Bioscience Company. Mice were fed in an SPF-level laboratory animal room. The mice were kept in independent ventilation cages with autoclaved corncobs at the bottom of the cage as bedding. The dimensions of the cages were 390 × 180 × 180 mm. Environmental factors: Average air temperature ranged from 20 to 26 °C with average relative air humidity ranging from 40 to 70%. Noise was below 60 decibels. Ventilation times were more than 15 times/hour. Air velocity was 0.1~0.2m/s. The ammonia concentration was below 14/(mg/m³). Working illumination was 150~300LX and animal illumination was 15~20LX. The nutritional components of mouse food include: water content: ≤10%, crude protein: ≥18%, crude fat: ≥4%, crude fiber: ≥5%, minerals: ≥4%, calcium: 1.0–1.8%, Phosphorus: 0.6-1.2%. The water that mice drink is sterilized by the animal drinking system.
Cells SiHa were harvested during the exponential-growth phase, washed 3 times with serum-free medium, followed by resuspension at a concentration of 2 × 10^6 per mL. A total of 100 μL of cell suspension was injected into SCID mice subcutaneously. After the tumors had grown to 100−150 mm^3, all the mice were randomized into 5 groups (5 mice for each group, 25 mice total). The mice were treated daily via oral gavage administration with 12O (5, 10, or 20 mg kg^−1 d^−1), cisplatin (20 mg kg^−1 d^−1), or vehicle. […] Mice were monitored for side effects every day. Body weights and tumor sizes were determined every other day and volume was also observed. At the end-point of the study, all mice had survived. Mice were euthanized and the subcutaneous tumor tissues were stripped and collected. Tumor measurements were calculated using a digital vernier caliper, and the volumes were determined using the following calculation: (short^2) × long × 0.5. Inhibition rate of tumor growth was calculated using the following formula: 100 × {1 − [(tumor volume final-tumor volume initial) for 12O-treated group]/ [(tumor volume final-tumor volume initial) for the vehicle-treated group]} [23].

| Compound | IC50 (SKOV3) | IC50 (SiHa) | also measured |
| --- | --- | --- | --- |
| N-(3-bromophenyl)-N-(4-((5-fluoro-4-(1-isopropyl-1H-benzo[d](1,2,3)triazol-6-yl)pyrimidin-2-yl)amino)benzyl)cyclopropane-1,1-dicarboxamide [12E] | 778 nM | 66 nM |  |
| N-(4-bromophenyl)-N-(4-((5-fluoro-4-(1-isopropyl-1H-benzo[d](1,2,3)triazol-6-yl)pyrimidin-2-yl)amino)benzyl)cyclopropane-1,1-dicarboxamide [12F] | 706 nM | 128 nM |  |
| N-(4-((5-fluoro-4-(1-isopropyl-1H-benzo[d](1,2,3)triazol-6-yl)pyrimidin-2-yl)amino)benzyl)-N-(3-(trifluoromethyl)phenyl)cyclopropane-1,1-dicarboxamide [12M] | 498 nM | 177 nM |  |
| N-(4-cyanophenyl)-N-(4-((5-fluoro-4-(1-isopropyl-1H-benzo[d](1,2,3)triazol-6-yl)pyrimidin-2-yl)amino)benzyl)cyclopropane-1,1-dicarboxamide [12L] | 101 nM | 63 nM |  |
| N.N.[Cl][Pt][Cl] [Cisplatin, cisplatin, reference compound] | 5360 nM | 4910 nM | IC50 (HeLa): 5810 nM; IC50 (MCF-7): 7160 nM; IC50 (4T1): 4260 nM; IC50 (OVCAR-5): 1240 nM; IC50 (A549): 8280 nM; IC50 (H460): > 10000 nM; Tumor growth inhibition (TGI) (SiHa xenograft): 31.14% |
| N-(4-chlorophenyl)-N-(4-((5-fluoro-4-(1-isopropyl-1H-benzo[d](1,2,3)triazol-6-yl)pyrimidin-2-yl)amino)benzyl)cyclopropane-1,1-dicarboxamide [12D] | 793 nM | 63 nM |  |

More lines, in order of falling IC50 (SKOV3), values ahead:

| IC50 (SKOV3) | Compound | IC50 (SiHa) | also measured |
| --- | --- | --- | --- |
| 915 nM | N-(4-chloro-3-(trifluoromethyl)phenyl)-N-(4-((5-fluoro-4-(1-isopropyl-1H-benzo[d](1,2,3)triazol-6-yl)pyrimidin-2-yl)amino)benzyl)cyclopropane-1,1-dicarboxamide [12P] | 231 nM |  |
| 531 nM | N-(4-((5-fluoro-4-(1-isopropyl-1H-benzo[d](1,2,3)triazol-6-yl)pyrimidin-2-yl)amino)benzyl)-N-(3-fluorophenyl)cyclopropane-1,1-dicarboxamide [12A] | 35 nM |  |
| 459 nM | N-(3-chlorophenyl)-N-(4-((5-fluoro-4-(1-isopropyl-1H-benzo[d](1,2,3)triazol-6-yl)pyrimidin-2-yl)amino)benzyl)cyclopropane-1,1-dicarboxamide [12C] | 68 nM |  |
| 427 nM | N-(4-((5-fluoro-4-(1-isopropyl-1H-benzo[d](1,2,3)triazol-6-yl)pyrimidin-2-yl)amino)benzyl)-N-(4-(trifluoromethyl)phenyl)cyclopropane-1,1-dicarboxamide [12N] | 160 nM |  |
| 325 nM | N-(4-((5-fluoro-4-(1-isopropyl-1H-benzo[d](1,2,3)triazol-6-yl)pyrimidin-2-yl)amino)benzyl)-N-(3-methoxyphenyl)cyclopropane-1,1-dicarboxamide [12G] | 73 nM |  |
| 312 nM | N-(4-((5-fluoro-4-(1-isopropyl-1H-benzo[d](1,2,3)triazol-6-yl)pyrimidin-2-yl)amino)benzyl)-N-(4-methoxyphenyl)cyclopropane-1,1-dicarboxamide [12H] | 80 nM |  |
| 199 nM | N-(4-((5-fluoro-4-(1-isopropyl-1H-benzo[d](1,2,3)triazol-6-yl)pyrimidin-2-yl)amino)benzyl)-N-(4-fluorophenyl)cyclopropane-1,1-dicarboxamide [12B] | 28 nM |  |
| 165 nM | N-(4-((5-fluoro-4-(1-isopropyl-1H-benzo[d](1,2,3)triazol-6-yl)pyrimidin-2-yl)amino)benzyl)-N-(m-tolyl)cyclopropane-1,1-dicarboxamide [12I] | 42 nM |  |
| 137 nM | N-(4-((5-fluoro-4-(1-isopropyl-1H-benzo[d](1,2,3)triazol-6-yl)pyrimidin-2-yl)amino)benzyl)-N-(p-tolyl)cyclopropane-1,1-dicarboxamide [12J] | 74 nM |  |
| 108 nM | N-(3-cyanophenyl)-N-(4-((5-fluoro-4-(1-isopropyl-1H-benzo[d](1,2,3)triazol-6-yl)pyrimidin-2-yl)amino)benzyl)cyclopropane-1,1-dicarboxamide [12K] | 83 nM |  |
